# Measured values: patent US10293014B2, “Immune stimulating composition comprising an extract of Aronia sp. in combination with selenium and/or zinc” (Ursapharm Arzneimittel GmbH, priority 2009, dated 2019)
# System: macrophages of the mouse leukaemic monocyte macrophage cell line RAW 264.7
# Assay: Chemiluminescence assay of macrophage activity (lucigenine, zymosan)
# Type: cell-based
# Conditions: selenium alone, RAW 264.7, FIG. 3
# Experimental: Cells: Cell line (RAW 264.7, murine macrophages) was purchased from the America Type Culture Collection and cultivated as recommended.
# Chemiluminescence Assay: Lucigenine (Sigma Chemicals Co.) was dissolved in Hank's Balanced Salt Solution (HBSS; Gibco Co.) at a concentration of 2×10^−3 M. This stock solution was further diluted in HBSS prior to use. 1 ml cells (5×10^6 cells/ml) were incubated with 0.1 ml solution of Aronia extract and Aronia extract together with sodium selenite (dosis kinetics for each component and the combinations as documented in the figures). All these constituents were kept in an incubator (37° C., 5% CO2) for 30 min, then centrifuged at 1200 U/min for 5 min and resuspended in minimal essential medium (MEM, Gibco Co.).
# The reaction mixture consisted of a suspension (0.25 ml) at a concentration of 5×10^6 PMNL (polymorphonuclear leucocytes)/ml respectively monocytes/macrophages, 50 μl zymosan, and 0.45 ml medium containing 2×10^−6 M lucigenine. The reaction mixture was kept at 37° C. before chemoluminescence measurements were performed with a Luminometer (Luminoskan 1251, Labsystems) according to manufacturer's instructions (User's Manual 1995).
compound,measurement,value
"O=[Se]([O-])[O-].[Na+].[Na+] [selenium, sodium selenite]",concentrations that decrease macrophage activity,> 8 µg/mL
